Experimental data from PMC5362808, “Discovery of multi-target receptor tyrosine kinase inhibitors as novel anti-angiogenesis agents” (Scientific Reports, 2017).
Read-outs that look alike come from different tables or passages of the source.

Assays:
VEGFR-2 = VEGFR-2 (Homo sapiens, UniProt P35968); assay: ADP-Glo kinase inhibition assay, VEGFR-2; assay type: biochemical; details: read-out: VEGFR-2 inhibitory activity (IC50)
Experimental: (§1) Tyrosine kinase inhibition were tested by luminescent ADP-Glo^TM assay.
(§2) The kinase assay was performed in duplicate in a reaction mixture of final volume of 10 μL. […] The assay plate was incubated at 30 °C for 1 h. After the plate was cooled at room temperature for 5 min, 5 μL of ADP-Glo reagent was added into each well to stop the reaction and consume the remaining […] within 40 min. At the end, 10 μL of kinase detection reagent was added into the well and incubated for 30 min to produce a luminescence signal. […] The assay plate was incubated at 30 °C for 4 h. After the plate was cooled at room temperature for 5 min, 5 μL of ADP-Glo reagent was added into each well to stop the reaction and consume the remaining […] within 1 h. At the end, 10 μL of kinase detection reagent was added into the well and incubated for 30 min to produce a luminescence signal. The luminescence was read by VICTOR-X multi- label plate reader. The signal was correlated with the amount of […] present in the reaction and was […] with the kinase activity.

TIE-2 = TIE-2 (Homo sapiens, UniProt Q02763); assay: ADP-Glo kinase inhibition assay, TIE-2; assay type: biochemical
Experimental: as §1, §2

EphB4 = biological target: T1, EphB4 (Homo sapiens, UniProt P54760); assay: ADP-Glo kinase inhibition assay, EphB4; assay type: biochemical; details: read-out: EphB4 inhibitory activity (IC50)
T1 sequence (P54760 16-987): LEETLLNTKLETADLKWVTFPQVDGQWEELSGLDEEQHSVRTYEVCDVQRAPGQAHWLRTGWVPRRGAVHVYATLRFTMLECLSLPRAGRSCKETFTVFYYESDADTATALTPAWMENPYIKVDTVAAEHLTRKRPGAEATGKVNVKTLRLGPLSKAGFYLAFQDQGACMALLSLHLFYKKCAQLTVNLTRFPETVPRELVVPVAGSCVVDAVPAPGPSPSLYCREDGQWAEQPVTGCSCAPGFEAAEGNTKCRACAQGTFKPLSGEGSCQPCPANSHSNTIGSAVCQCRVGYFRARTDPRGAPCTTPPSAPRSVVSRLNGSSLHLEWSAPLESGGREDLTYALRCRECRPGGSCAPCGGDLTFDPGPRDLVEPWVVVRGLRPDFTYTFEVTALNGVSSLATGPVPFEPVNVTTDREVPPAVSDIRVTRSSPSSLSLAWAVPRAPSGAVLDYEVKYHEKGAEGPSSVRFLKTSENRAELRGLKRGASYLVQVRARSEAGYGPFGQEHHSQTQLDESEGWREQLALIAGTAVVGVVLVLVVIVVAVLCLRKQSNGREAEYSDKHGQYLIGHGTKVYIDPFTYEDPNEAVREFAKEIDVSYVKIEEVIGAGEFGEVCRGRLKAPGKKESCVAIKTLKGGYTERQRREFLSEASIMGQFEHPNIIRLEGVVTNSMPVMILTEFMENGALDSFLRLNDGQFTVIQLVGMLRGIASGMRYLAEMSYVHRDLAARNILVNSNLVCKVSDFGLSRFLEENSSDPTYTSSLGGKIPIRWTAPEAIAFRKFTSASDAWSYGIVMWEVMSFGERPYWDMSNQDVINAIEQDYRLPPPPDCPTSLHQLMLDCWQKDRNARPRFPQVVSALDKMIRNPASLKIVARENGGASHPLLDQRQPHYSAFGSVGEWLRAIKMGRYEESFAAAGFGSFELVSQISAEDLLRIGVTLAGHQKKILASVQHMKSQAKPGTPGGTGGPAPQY
Experimental: as §1, §2

B-Raf = B-Raf (Homo sapiens, UniProt P15056); assay: Kinase selectivity assay, B-Raf; assay type: biochemical; details: Table 3 selectivity profile
FGFR-1 = FGFR-1 (Homo sapiens, UniProt P11362); assay: Kinase selectivity assay, FGFR-1; assay type: biochemical; details: Table 3 selectivity profile
EGFR = EGFR (Homo sapiens, UniProt P00533); assay: Kinase selectivity assay, EGFR; assay type: biochemical; details: Table 3 selectivity profile
Src = Src (Homo sapiens, UniProt P12931); assay: Kinase selectivity assay, Src; assay type: biochemical; details: Table 3 selectivity profile
EA.hy926 = assay: MTT anti-proliferative assay against human vascular endothelial cell; assay type: cell-based; details: EA.hy 926, 48 h treatment
Experimental: Growth inhibitory activities were evaluated against human vascular endothelial cell (EA.hy926)[25]. Thirteen selected title compounds were tested using MTT assay to assess cell proliferation. Exponentially growing cells were harvested and plated in 96-well plates at a concentration of […] cells/well, and then incubated for 24 h at 37 °C. The cells were treated with title compounds respectively at various concentrations for 48 h. Then, […] fresh MTT (5 mg/mL) was added to each well and incubated for 4 h at 37 °C. Supernatant was discarded, and […] DMSO was added to each well. Absorbance values were determined by a microplate reader (Bio-Rad Instruments) at 490 nm. The IC50 values were calculated according to inhibition ratios.

[1] = test system: mouse lung tissue blood vessels; assay: Tissue model for angiogenesis (TMA), lung tissue vessel sprouting; details: 15.6 μM; observed on the 5th day
Experimental: A novel tissue model for angiogenesis that imitated new blood vessels formation in vivo had been established in the previous study.
Figure 8 Anti-angiogenesis potency of compound CDAU-2 in tissue model for angiogenesis (TMA). (A–F) the representative images of lung tissue blood vessels in the TMA on the 5th day; (A) the untreated control group; (B–F) lung tissue vessels in the CDAU-2 treated group; (B) 1.94 μM; (C) 3.87 μM; (D) 7.75 μM; (E) 15.6 μM; (F) 62.5 μM.
In brief, the mouse lung tissue was separated and cut into pieces (0.5–1.0 mm^3)[27]. Then pieces of lung tissue were placed onto 48-well plate coated with polymerized fibrinogen with thrombin. After consolidation, each group was incubated with 200 μL/well 1640 medium containing different concentrations of CDAU-2. Control groups were incubated with 2.5% DMSO or 1640 medium alone.

[2] = Table 1, ATP 50 μM, read-out: Tie-2 inhibitory activity (IC50)
[3] = Table 2, ATP 50 μM, read-out: TIE-2 inhibitory activity (IC50)

VEGFR-2, sequence (P35968 20-1356): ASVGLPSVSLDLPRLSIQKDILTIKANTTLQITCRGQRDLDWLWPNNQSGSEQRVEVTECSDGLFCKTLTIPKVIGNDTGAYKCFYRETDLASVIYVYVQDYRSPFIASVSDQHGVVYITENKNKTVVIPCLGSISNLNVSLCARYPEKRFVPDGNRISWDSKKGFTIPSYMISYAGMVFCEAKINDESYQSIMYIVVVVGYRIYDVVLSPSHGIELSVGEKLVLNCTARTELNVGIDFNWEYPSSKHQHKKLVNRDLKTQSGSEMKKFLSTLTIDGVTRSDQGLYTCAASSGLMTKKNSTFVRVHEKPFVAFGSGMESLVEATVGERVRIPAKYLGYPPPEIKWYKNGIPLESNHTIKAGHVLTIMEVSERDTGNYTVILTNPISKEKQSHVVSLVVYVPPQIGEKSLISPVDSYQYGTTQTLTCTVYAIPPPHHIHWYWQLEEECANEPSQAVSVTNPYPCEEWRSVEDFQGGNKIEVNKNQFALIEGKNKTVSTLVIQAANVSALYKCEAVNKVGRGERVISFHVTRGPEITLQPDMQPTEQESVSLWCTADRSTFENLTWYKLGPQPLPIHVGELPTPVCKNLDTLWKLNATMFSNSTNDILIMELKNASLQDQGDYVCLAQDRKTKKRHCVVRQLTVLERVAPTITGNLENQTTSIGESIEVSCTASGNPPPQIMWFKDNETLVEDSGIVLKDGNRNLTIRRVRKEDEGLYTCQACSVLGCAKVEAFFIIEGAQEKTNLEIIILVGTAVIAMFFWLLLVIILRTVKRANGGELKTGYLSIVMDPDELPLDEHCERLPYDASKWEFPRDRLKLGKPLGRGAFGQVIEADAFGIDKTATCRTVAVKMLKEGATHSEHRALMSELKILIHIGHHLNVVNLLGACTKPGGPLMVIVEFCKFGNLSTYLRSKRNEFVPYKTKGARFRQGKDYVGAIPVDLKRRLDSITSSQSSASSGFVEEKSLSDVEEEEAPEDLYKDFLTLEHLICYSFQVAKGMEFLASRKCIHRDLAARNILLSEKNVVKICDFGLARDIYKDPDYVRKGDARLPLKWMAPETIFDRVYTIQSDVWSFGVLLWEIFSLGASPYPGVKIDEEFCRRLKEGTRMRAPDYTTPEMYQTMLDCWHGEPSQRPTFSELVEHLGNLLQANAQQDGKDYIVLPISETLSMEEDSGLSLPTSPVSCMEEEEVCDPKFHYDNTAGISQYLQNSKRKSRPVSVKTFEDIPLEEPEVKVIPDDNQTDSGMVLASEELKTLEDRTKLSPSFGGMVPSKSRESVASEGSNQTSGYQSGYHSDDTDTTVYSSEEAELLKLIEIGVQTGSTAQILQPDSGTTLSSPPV
TIE-2, sequence (Q02763 23-1124): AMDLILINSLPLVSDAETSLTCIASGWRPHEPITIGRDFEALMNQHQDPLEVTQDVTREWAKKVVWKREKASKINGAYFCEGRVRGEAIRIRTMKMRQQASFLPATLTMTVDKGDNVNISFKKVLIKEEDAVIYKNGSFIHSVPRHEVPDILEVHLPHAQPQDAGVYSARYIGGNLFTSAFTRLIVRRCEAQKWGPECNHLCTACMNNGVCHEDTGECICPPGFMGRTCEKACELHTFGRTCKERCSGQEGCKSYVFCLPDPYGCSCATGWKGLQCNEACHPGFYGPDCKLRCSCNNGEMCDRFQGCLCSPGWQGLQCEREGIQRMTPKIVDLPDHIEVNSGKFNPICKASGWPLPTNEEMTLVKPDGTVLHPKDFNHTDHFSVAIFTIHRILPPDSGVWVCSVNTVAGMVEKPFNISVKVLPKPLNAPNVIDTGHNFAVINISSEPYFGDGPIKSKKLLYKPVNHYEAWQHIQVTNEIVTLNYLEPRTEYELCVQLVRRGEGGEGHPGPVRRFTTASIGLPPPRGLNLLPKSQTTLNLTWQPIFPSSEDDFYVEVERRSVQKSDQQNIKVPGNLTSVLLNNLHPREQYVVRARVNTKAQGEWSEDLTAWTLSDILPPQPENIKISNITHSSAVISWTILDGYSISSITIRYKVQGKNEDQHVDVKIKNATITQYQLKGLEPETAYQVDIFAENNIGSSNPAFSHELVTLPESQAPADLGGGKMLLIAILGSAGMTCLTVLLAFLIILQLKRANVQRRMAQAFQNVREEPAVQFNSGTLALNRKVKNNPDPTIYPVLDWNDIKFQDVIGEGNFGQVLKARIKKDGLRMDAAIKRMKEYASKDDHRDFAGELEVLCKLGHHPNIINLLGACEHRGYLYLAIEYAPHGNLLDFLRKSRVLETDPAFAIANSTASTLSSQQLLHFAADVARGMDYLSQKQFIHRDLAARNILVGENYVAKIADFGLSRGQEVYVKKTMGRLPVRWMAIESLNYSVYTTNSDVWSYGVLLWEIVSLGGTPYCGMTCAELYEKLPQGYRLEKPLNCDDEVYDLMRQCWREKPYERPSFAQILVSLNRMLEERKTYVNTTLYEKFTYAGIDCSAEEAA
B-Raf, sequence (P15056 whole entry, species assumed): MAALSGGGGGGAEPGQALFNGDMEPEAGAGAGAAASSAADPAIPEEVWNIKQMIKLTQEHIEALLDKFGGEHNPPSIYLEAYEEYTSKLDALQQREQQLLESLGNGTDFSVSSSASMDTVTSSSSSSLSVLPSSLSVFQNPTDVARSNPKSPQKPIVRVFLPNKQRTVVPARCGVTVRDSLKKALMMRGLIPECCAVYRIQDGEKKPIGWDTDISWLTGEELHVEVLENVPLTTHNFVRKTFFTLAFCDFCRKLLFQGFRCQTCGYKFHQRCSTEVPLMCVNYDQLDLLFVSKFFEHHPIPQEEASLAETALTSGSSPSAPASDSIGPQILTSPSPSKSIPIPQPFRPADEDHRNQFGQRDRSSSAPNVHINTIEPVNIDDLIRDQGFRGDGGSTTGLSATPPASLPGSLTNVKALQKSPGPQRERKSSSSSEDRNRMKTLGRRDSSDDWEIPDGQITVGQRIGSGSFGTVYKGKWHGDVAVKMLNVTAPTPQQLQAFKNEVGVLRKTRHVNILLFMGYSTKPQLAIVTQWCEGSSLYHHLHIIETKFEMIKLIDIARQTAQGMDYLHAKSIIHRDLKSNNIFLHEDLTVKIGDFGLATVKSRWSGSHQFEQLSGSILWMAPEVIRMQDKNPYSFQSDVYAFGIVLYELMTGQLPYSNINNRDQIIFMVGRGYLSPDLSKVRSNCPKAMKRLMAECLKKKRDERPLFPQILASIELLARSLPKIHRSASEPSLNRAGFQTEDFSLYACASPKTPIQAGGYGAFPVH
FGFR-1, sequence (P11362 22-822, species assumed): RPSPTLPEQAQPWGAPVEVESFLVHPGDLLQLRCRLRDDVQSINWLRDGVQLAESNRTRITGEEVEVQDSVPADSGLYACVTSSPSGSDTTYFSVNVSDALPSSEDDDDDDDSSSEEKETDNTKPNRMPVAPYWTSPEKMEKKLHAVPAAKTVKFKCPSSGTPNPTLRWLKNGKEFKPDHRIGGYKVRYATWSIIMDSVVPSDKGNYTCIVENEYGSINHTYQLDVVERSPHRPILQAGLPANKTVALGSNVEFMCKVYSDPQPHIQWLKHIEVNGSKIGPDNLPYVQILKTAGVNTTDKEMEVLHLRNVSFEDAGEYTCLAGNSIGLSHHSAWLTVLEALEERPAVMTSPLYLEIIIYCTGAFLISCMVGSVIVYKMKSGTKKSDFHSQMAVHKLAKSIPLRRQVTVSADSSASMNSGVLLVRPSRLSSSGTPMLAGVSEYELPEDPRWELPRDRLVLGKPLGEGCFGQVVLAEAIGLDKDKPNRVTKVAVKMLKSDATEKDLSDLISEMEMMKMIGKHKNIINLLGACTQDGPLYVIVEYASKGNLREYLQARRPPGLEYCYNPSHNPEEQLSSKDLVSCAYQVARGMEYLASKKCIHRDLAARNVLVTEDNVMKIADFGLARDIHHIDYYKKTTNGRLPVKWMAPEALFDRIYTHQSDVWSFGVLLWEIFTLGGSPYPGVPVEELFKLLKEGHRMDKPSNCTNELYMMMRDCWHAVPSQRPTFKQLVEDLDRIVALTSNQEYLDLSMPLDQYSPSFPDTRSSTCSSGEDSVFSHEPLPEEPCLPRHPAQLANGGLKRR
Src, sequence (P12931 whole entry, species assumed): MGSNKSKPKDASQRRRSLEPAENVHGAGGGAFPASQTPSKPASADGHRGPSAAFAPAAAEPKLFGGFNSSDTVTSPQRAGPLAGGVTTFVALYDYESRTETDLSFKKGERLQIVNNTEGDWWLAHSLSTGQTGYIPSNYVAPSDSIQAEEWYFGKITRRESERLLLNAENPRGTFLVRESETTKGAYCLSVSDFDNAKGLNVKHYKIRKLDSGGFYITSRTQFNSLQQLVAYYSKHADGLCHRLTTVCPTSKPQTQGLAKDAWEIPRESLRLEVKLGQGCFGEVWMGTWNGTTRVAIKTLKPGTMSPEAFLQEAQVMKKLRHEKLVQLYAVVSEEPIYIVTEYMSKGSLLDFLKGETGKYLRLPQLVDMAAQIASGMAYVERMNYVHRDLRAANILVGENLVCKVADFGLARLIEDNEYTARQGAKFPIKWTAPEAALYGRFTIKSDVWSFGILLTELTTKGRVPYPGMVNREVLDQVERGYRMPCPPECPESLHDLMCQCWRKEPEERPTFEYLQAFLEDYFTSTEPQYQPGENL

| IC50 (VEGFR-2; Table 1, ATP 50 μM) | IC50 (TIE-2; [2]) | IC50 (EphB4; Table 1, ATP 50 μM) | IC50 (VEGFR-2; Table 2, ATP 50 μM) | IC50 (TIE-2; [3]) | IC50 (EphB4; Table 2, ATP 50 μM) | Structure (SMILES) | IC50 (EA.hy926) | other results |
| --- | --- | --- | --- | --- | --- | --- | --- | --- |
| 0.0233 µM | 0.0329 µM | 0.948 µM | – | – | – | O=C(Nc1ccc(-c2ccc(NC(=O)C3CC3)nc2)cc1)Nc1cccc(Cl)c1 [CDAU-6] | 880 µM | – |
| – | – | – | > 1 µM | 0.271 µM | > 1 µM | Cc1ccc(NC(=O)Nc2ccc(-c3cccc(NC(=O)C4CC4)n3)cc2)cc1Cl [CDAU-13] | – | – |
| – | – | – | – | 0.0329 µM | > 1 µM | O=C(Nc1ccc(F)cc1)Nc1ccc(-c2cccc(NC(=O)C3CC3)n2)cc1 [CDAU-14] | – | – |
| – | – | – | 0.0734 µM | > 1 µM | > 1 µM | O=C(Nc1ccc(-c2cccc(NC(=O)C3CC3)n2)cc1)Nc1ccccc1Cl [CDAU-16] | – | – |
| – | – | – | 0.063 µM | – | 0.17 µM | CC(C)c1cccc(NC(=O)Nc2ccc(-c3cccc(NC(=O)C4CC4)n3)cc2)c1 [CDAU-17] | 133 µM | – |
| – | – | – | – | 0.00492 µM | > 1 µM | O=C(Nc1ccc(-c2cccc(NC(=O)C3CC3)n2)cc1)Nc1cccc(Cl)c1 [CDAU-18] | 22.6 µM | – |
| – | – | – | 0.0427 µM | 0.0788 µM | – | O=C(Nc1ccc(-c2cccc(NC(=O)C3CC3)n2)cc1)Nc1ccc(Cl)cc1Cl [CDAU-20] | 45.7 µM | – |
| – | – | – | 0.00627 µM | 0.0428 µM | 0.162 µM | O=C(Nc1ccc(-c2cccc(NC(=O)C3CC3)n2)cc1)Nc1cccc(C(F)(F)F)c1 [CDAU-21] | 40.5 µM | – |
| – | – | – | > 1 µM | > 1 µM | – | O=C(Nc1ccc(-c2cccc(NC(=O)C3CC3)n2)cc1)Nc1cccc(F)c1 [CDAU-24] | – | – |

Continued, compound first:

| Structure (SMILES) | IC50 (VEGFR-2; Table 1, ATP 50 μM) | IC50 (TIE-2; [2]) | IC50 (EphB4; Table 1, ATP 50 μM) | IC50 (VEGFR-2; Table 2, ATP 50 μM) | IC50 (TIE-2; [3]) | IC50 (EphB4; Table 2, ATP 50 μM) | IC50 (EA.hy926) | other results |
| --- | --- | --- | --- | --- | --- | --- | --- | --- |
| O=C(Nc1ccc(-c2ccc(NC(=O)C3CC3)nc2)cc1)Nc1cccc(C(F)(F)F)c1 [CDAU-1, N-(5-(4-(3-(3-(trifluoromethyl)phenyl)ureido)phenyl)pyridin-2-yl)cyclopropanecarboxamide] | 0.00111 µM | 0.0072 µM | 0.00534 µM | – | – | – | 16.1 µM | IC50 (B-Raf): 0.0572 µM; IC50 (FGFR-1): 0.155 µM; IC50 (EGFR): 0.204 µM; IC50 (Src): > 0.5 µM; melting point: 270 to 272 °C |
| O=C(Nc1ccc(-c2ccc(NC(=O)C3CC3)nc2)cc1)Nc1ccc(Cl)c(C(F)(F)F)c1 [CDAU-2] | 0.00101 µM | 0.00832 µM | 0.00511 µM | – | – | – | 14.5 µM | IC50 (B-Raf): 0.0346 µM; IC50 (FGFR-1): 0.317 µM; IC50 (EGFR): 0.191 µM; IC50 (Src): > 0.5 µM; Anti-angiogenesis potency: inhibition of vessel outgrowth from lung tissue [1]: inhibited vessels outgrew from the periphery of the lung tissues evidently |
| O=C(Nc1ccc(-c2ccc(NC(=O)C3CC3)nc2)cc1)Nc1ccc(C(F)(F)F)c(C(F)(F)F)c1 [CDAU-3] | 0.002 µM | 0.0275 µM | > 1 µM | – | – | – | 309 µM | melting point: 241 to 243 °C |
| O=C(Nc1ccc(-c2ccc(NC(=O)C3CC3)nc2)cc1)Nc1ccc(F)c(F)c1 [CDAU-4] | 0.00142 µM | > 1 µM | – | – | – | – | 85 µM | – |
| O=C(Nc1ccc(-c2ccc(NC(=O)C3CC3)nc2)cc1)Nc1ccc(C(F)(F)F)c(Cl)c1 [CDAU-5] | 0.00552 µM | 0.0613 µM | > 1 µM | – | – | – | 152 µM | – |
| O=C(Nc1ccc(-c2ccc(NC(=O)C3CC3)nc2)cc1)Nc1ccccc1F [CDAU-7] | > 1 µM | > 1 µM | > 1 µM | – | – | – | 46.2 µM | – |
| O=C(Nc1ccc(OC(F)(F)F)cc1)Nc1ccc(-c2ccc(NC(=O)C3CC3)nc2)cc1 [CDAU-8] | > 1 µM | > 1 µM | > 1 µM | – | – | – | – | – |
| CC(C)(C)NC(=O)Nc1ccc(-c2ccc(NC(=O)C3CC3)nc2)cc1 [CDAU-9] | > 1 µM | 0.858 µM | > 1 µM | – | – | – | – | – |
| CN(C)CCNC(=O)Nc1ccc(-c2ccc(NC(=O)C3CC3)nc2)cc1 [CDAU-10] | > 1 µM | > 1 µM | > 1 µM | – | – | – | > 1000 µM | – |
| CN(C)C(=O)Nc1ccc(-c2ccc(NC(=O)C3CC3)nc2)cc1 [CDAU-11] | > 1 µM | > 1 µM | > 1 µM | – | – | – | – | – |
| O=C(Nc1ccc(-c2cccc(NC(=O)C3CC3)n2)cc1)Nc1ccc(Cl)c(C(F)(F)F)c1 [CDAU-12, N-(6-(4-(3-(4-chloro-3-(trifluoromethyl)phenyl)ureido)phenyl)pyridin-2-yl)cyclopropanecarboxamide] | – | – | – | > 1 µM | > 1 µM | > 1 µM | – | – |
| CC(C)(C)c1ccc(NC(=O)Nc2ccc(-c3cccc(NC(=O)C4CC4)n3)cc2)cc1 [CDAU-15] | – | – | – | 0.028 µM | > 1 µM | – | – | – |
| O=C(Nc1ccc(OC(F)(F)F)cc1)Nc1ccc(-c2cccc(NC(=O)C3CC3)n2)cc1 [CDAU-19] | – | – | – | 0.034 µM | – | > 1 µM | 31 µM | – |
| O=C(Nc1ccc(-c2cccc(NC(=O)C3CC3)n2)cc1)Nc1ccc(F)cc1F [CDAU-22] | – | – | – | > 1 µM | > 1 µM | – | – | – |
| O=C(Nc1ccc(-c2cccc(NC(=O)C3CC3)n2)cc1)Nc1ccccc1F [CDAU-23] | – | – | – | > 1 µM | > 1 µM | – | – | – |
| Cc1cccc(C)c1NC(=O)Nc1ccc(-c2cccc(NC(=O)C3CC3)n2)cc1 [CDAU-25] | – | – | – | – | > 1 µM | > 1 µM | – | – |
